The text below walks through data of patent US10689354B2, “Aminoazole derivative” (Teijin Pharma Limited, priority 2015, dated 2020).

The target of assay [1] is T1, androgen receptor (AR-LBD) (Rattus norvegicus, UniProt P15207).
T1 construct: 5 μL of 2×AR-LBD/Fluoromone AL Red Complex contained in the kit; purchased Invitrogen
T1 sequence (P15207 651-882 limits assumed): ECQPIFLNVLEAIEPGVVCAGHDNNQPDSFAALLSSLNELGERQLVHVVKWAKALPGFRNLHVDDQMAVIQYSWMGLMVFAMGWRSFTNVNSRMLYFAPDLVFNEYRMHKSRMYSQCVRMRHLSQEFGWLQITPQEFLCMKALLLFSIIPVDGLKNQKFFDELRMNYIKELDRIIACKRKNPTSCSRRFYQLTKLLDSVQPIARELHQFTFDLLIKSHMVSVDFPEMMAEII
The experiment in a line: Evaluation of androgen receptor affinity (PolarScreen Androgen Receptor Competitor Assay Kit, Red; fluorescence polarization). Conditions: 22° C. for 5 hours, relative to binding rate of 1 μM DHT, read-out: AR affinity (pEC50) (converted). Put shortly:
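FP competition: compound + AR-LBD/Fluoromone AL Red tracer complex, 22° C, 5 h. Reference 1 μM DHT binding rate; pEC50 by 4-parameter fit.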

Assay [2] addresses T2, human androgen receptor (Homo sapiens, UniProt P10275).
T2 construct: expressed in transfected cells; host or cells: HEK293
T2 sequence (P10275 1-920): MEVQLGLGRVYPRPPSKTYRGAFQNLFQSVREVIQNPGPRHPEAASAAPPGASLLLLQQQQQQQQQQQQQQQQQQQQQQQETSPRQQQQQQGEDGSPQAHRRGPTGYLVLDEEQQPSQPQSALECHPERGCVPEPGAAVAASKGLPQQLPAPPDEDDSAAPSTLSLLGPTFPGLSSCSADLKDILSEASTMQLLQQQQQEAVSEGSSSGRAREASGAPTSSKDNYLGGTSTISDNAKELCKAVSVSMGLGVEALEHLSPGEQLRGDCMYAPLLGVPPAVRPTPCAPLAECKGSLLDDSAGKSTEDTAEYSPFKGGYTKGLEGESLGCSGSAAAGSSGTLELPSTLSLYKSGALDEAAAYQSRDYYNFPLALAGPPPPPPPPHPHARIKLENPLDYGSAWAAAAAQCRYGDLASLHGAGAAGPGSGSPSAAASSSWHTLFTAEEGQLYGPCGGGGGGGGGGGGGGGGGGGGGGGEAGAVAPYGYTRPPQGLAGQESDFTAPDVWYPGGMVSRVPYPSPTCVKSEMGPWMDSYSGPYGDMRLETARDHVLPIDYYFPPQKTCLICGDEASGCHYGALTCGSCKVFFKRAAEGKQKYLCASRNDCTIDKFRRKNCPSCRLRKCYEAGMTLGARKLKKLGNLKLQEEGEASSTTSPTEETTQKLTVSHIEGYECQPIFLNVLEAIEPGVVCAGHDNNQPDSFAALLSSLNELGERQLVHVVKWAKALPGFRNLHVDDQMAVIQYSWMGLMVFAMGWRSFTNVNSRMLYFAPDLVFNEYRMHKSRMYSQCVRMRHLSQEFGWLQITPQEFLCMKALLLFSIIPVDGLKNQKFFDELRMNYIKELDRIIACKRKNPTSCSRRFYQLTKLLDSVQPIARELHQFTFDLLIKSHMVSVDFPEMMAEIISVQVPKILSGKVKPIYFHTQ
The experiment in a line: Reporter assay of an androgen receptor responsive sequence (luciferase, transiently transfected HEK293 cells). It is filed as cell-based. The settings on record: 24 hours incubation, relative to activity of 100 nM DHT, read-out: AR transcriptive activity (pEC50) (converted). The procedure, abridged: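 Agonism scored as pEC50, fitted by 4-parameter curve against the response to 100 nM DHT, from dual-luciferase readout after 24 h compound treatment. Cells were HEK293 co-transfected (3 h) with human AR expression vector, androgen-responsive firefly reporter and Renilla control, in charcoal-stripped serum.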
For orientation: A reporter such as luciferase makes a cellular process visible.

Regarding `COCCCS(=O)(=O)NC(=O)c1nc(N(Cc2ccc(OC(F)(F)F)cc2)c2ccc(C#N)cc2)sc1C` [Compound 157, 2-[4-cyano-N-[[4-(trifluoromethoxy)phenyl]methyl]anilino]-N-(3-methoxypropylsulfonyl)-5-methyl-thiazole-4-carboxamide], the EC50 in assay [1] is 0.0316 µM; in assay [2], 0.2 µM.
For `Cc1sc(N(CCc2ccc(Cl)cc2)Cc2ccc(Cl)cn2)nc1C(=O)NS(C)(=O)=O` [Compound 158, 2-[2-(4-chlorophenyl)ethyl-[(5-chloro-2-pyridyl)methyl]amino]-5-methyl-N-methylsulfonyl-thiazole-4-carboxamide], in that order: 0.1 µM and 0.631 µM.
On to `Cc1sc(N(CCc2ccc(OC(F)F)cc2)Cc2ccc(F)cc2)nc1C(=O)NS(C)(=O)=O` [Compound 159, 2-[2-[4-(difluoromethoxy)phenyl]ethyl-[(4-fluorophenyl)methyl]amino]-5-methyl-N-methylsulfonyl-thiazole-4-carboxamide], for which the values for the EC50 in assay [1] and in assay [2] were 0.0631 µM and 0.398 µM, respectively.
For `Cc1sc(N(CCc2ccc(OC(F)F)cc2)Cc2ccccc2)nc1C(=O)NS(C)(=O)=O` [Compound 160, 2-[benzyl-[2-[4-(difluoromethoxy)phenyl]ethyl]amino]-5-methyl-N-methylsulfonyl-thiazole-4-carboxamide], in that order: 0.1 µM and 0.501 µM.
In the case of `Cc1sc(N(CCc2ccc(Cl)cc2)Cc2nc(C3CC3)no2)nc1C(=O)NS(C)(=O)=O` [Compound 161, 2-[2-(4-chlorophenyl)ethyl-[(3-cyclopropyl-1,2,4-oxadiazol-5-yl)methyl]amino]-5-methyl-N-methylsulfonyl-thiazole-4-carboxamide], the results for the EC50 in assay [1] and in assay [2] were 0.126 µM and 0.501 µM, respectively.
Regarding `Cc1sc(N(CCc2ccc(OC(F)F)cc2)Cc2nc(C3CC3)no2)nc1C(=O)NS(C)(=O)=O` [Compound 162, 2-[(3-cyclopropyl-1,2,4-oxadiazol-5-yl)methyl-[2-[4-(difluoromethoxy)phenyl]ethyl]amino]-5-methyl-N-methylsulfonyl-thiazole-4-carboxamide], the EC50 in assay [1] was 0.158 µM; in assay [2] it was 1 µM.
As to `COCCCS(=O)(=O)NC(=O)c1nc(N(Cc2ccc(Cl)cn2)c2ccc(C#N)cc2)sc1C` [Compound 163, 2-[N-[(5-chloro-2-pyridyl)methyl]-4-cyano-anilino]-N-(3-methoxypropylsulfonyl)-5-methyl-thiazole-4-carboxamide], the EC50 in assay [1] is 0.2 µM; in assay [2], 0.251 µM.
The matching figures for `COCCCS(=O)(=O)NC(=O)c1nc(N(Cc2ccc(C(F)(F)F)nc2)c2ccc(C#N)cc2)sc1C` [Compound 164, 2-[4-cyano-N-[[6-(trifluoromethyl)-3-pyridyl]methyl]anilino]-N-(3-methoxypropylsulfonyl)-5-methyl-thiazole-4-carboxamide]: 0.251 µM and 0.631 µM.
The matching figures for `Cc1sc(N(CCc2ccc(C#N)cc2)Cc2ccc(Cl)cc2)nc1C(=O)NS(=O)(=O)Cc1cccnc1` [Compound 321, 2-[(4-chlorophenyl)methyl-[2-(4-cyanophenyl)ethyl]amino]-5-methyl-N-(3-pyridylmethylsulfonyl)thiazole-4-carboxamide]: 0.02 µM and 0.1 µM.
As for `Cc1sc(N(CCc2ccc(C#N)cc2)Cc2ccc(Cl)cc2)nc1C(=O)NS(=O)(=O)Cc1cccc(F)c1` [Compound 322, 2-[(4-chlorophenyl)methyl-[2-(4-cyanophenyl)ethyl]amino]-N-[(3-fluorophenyl)methylsulfonyl]-5-methyl-thiazole-4-carboxamide], the EC50 in assay [1] was 0.0631 µM; in assay [2], more than 10 µM.
Turning to `Cc1sc(N(CCc2ccc(C#N)cc2)Cc2ccc(OC(F)(F)F)cc2)nc1C(=O)NS(C)(=O)=O` [Compound 323, 2-[2-(4-cyanophenyl)ethyl-[[4-(trifluoromethoxy)phenyl]methyl]amino]-5-methyl-N-methylsulfonyl-thiazole-4-carboxamide], the EC50 was 0.0251 µM in assay [1] and 0.251 µM in assay [2].
For `Cc1sc(N(CCc2ccc(C#N)cc2)Cc2ccc(OC(F)(F)F)cc2)nc1C(=O)NS(=O)(=O)Cc1cccnc1` [Compound 324, 2-[2-(4-cyanophenyl)ethyl-[[4-(trifluoromethoxy)phenyl]methyl]amino]-5-methyl-N-(3-pyridylmethylsulfonyl)thiazole-4-carboxamide], in that order: 0.02 µM and 0.1 µM.
For `Cc1sc(N(CCC2CCCCC2)Cc2ccc(Cl)cc2)nc1C(=O)NS(=O)(=O)Cc1cccnc1` [Compound 325, 2-[(4-chlorophenyl)methyl-(2-cyclohexylethyl)amino]-5-methyl-N-(3-pyridylmethylsulfonyl)thiazole-4-carboxamide], in that order: 0.0316 µM and 0.398 µM.
The matching figures for `Cc1sc(N(CCn2cc(C#N)cn2)Cc2ccccc2)nc1C(=O)NS(C)(=O)=O` [Compound 326, 2-[benzyl-[2-(4-cyanopyrazol-1-yl)ethyl]amino]-5-methyl-N-methylsulfonyl-thiazole-4-carboxamide]: 0.631 µM and 1 µM.
As to `Cc1sc(N(Cc2ccccc2)CC(F)(F)c2ccc(Cl)cc2)nc1C(=O)NS(C)(=O)=O` [Compound 329, 2-[benzyl-[2-(4-chlorophenyl)-2,2-difluoro-ethyl]amino]-5-methyl-N-methylsulfonyl-thiazole-4-carboxamide], the EC50 was 0.126 µM in assay [1] and 3.98 µM in assay [2].
The matching figures for `Cc1sc(N(CCc2cccc(C(F)(F)F)c2)Cc2ccccc2)nc1C(=O)NS(C)(=O)=O` [Compound 330, 2-[benzyl-[2-[3-(trifluoromethyl)phenyl]ethyl]amino]-5-methyl-N-methylsulfonyl-thiazole-4-carboxamide]: 0.251 µM and more than 10 µM.
For `Cc1sc(N(CCc2ccc(C(F)(F)F)cc2)Cc2ccccc2)nc1C(=O)NS(C)(=O)=O` [Compound 333, 2-[benzyl-[2-[4-(trifluoromethyl)phenyl]ethyl]amino]-5-methyl-N-methylsulfonyl-thiazole-4-carboxamide], in that order: 0.0251 µM and 0.1 µM.
For `Cc1sc(N(Cc2ccccc2)c2ccc3ncsc3c2)nc1C(=O)NS(C)(=O)=O` [Compound 335, 2-[1,3-benzothiazol-6-yl(benzyl)amino]-5-methyl-N-methylsulfonyl-thiazole-4-carboxamide], in that order: 0.631 µM and 1.58 µM.
Turning to `Cc1sc(N(CCc2ccccc2F)Cc2ccccc2)nc1C(=O)NS(C)(=O)=O` [Compound 339, 2-[benzyl-[2-(2-fluorophenyl)ethyl]amino]-5-methyl-N-methylsulfonyl-thiazole-4-carboxamide], the EC50 in assay [1] was 0.0398 µM; in assay [2] it was 2 µM.
Turning to `Cc1sc(N(CCc2ccc(F)cc2)Cc2ccccc2)nc1C(=O)NS(C)(=O)=O` [Compound 340, 2-[benzyl-[2-(4-fluorophenyl)ethyl]amino]-5-methyl-N-methylsulfonyl-thiazole-4-carboxamide], the EC50 was 0.1 µM in assay [1] and 0.251 µM in assay [2].
The matching figures for `Cc1sc(N(Cc2ccccc2)c2ccc(C(F)(F)F)cc2)nc1C(=O)NS(C)(=O)=O` [Compound 341, 2-[N-benzyl-4-(trifluoromethyl)anilino]-5-methyl-N-methylsulfonyl-thiazole-4-carboxamide]: 0.0631 µM and 1.26 µM.
The matching figures for `COc1ccc(CN(c2ccc(C#N)cc2)c2nc(C(=O)NS(C)(=O)=O)c(C)s2)cc1` [Compound 342, 2-[4-cyano-N-[(4-methoxyphenyl)methyl]anilino]-5-methyl-N-methylsulfonyl-thiazole-4-carboxamide]: 0.0631 µM and 0.0251 µM.
